Where “and” joins values, the source holds several entries; their conditions need not be identical. Identical values can stand only once. Entries after “also recorded” stand apart in the source; their conditions may differ. Like-named read-outs stand apart in the source and are kept apart here.
How the values were obtained:
EGFR in A431 cells = EGFR in A431 cells (Homo sapiens, UniProt P00533); experiment: Gel-based ABPP of EGFR probes in A431 cells; details: for in-cell EGFR labeling, competition with excess Afatinib: pretreatment Afatinib 5 μM; for target selectivity in time-course labeling: 1 µM, up to 6 h
EGFR in A431 cells, sequence (P00533 25-1210): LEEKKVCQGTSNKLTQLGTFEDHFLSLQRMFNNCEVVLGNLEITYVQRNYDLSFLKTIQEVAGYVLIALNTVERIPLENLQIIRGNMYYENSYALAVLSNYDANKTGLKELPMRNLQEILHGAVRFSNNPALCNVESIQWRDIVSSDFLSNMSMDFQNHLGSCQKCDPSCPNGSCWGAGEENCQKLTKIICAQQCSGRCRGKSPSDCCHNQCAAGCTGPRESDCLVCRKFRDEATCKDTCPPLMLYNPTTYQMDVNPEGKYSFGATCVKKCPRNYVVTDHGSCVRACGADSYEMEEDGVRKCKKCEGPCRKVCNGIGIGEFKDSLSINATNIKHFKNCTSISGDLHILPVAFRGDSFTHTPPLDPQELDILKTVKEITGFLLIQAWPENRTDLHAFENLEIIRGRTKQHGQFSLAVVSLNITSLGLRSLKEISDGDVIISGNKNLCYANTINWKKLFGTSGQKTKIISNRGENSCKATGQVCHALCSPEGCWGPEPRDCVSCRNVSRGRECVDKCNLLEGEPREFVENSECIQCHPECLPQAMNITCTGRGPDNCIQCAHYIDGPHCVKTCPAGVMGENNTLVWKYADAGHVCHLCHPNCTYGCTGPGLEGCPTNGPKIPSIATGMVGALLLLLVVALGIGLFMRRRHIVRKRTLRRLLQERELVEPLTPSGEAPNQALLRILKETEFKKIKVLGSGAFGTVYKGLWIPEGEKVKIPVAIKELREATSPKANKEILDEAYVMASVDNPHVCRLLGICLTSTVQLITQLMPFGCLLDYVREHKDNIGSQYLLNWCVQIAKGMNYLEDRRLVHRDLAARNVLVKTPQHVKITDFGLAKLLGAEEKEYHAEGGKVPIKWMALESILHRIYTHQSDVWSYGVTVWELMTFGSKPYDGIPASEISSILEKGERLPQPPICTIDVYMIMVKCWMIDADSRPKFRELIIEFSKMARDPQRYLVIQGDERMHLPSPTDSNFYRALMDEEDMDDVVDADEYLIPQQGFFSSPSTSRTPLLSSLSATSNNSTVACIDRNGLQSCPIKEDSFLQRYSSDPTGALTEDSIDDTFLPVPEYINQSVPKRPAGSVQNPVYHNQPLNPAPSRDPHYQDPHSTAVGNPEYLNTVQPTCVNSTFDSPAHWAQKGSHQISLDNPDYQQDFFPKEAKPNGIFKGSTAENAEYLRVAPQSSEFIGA
Description: With this probe in hand, we treated wild-type EGFR overexpressing A431 cells at a probe concentration of 1 μM for 1 h at 37 °C, followed by lysis and fluorescent labeling via CuAAC.
For EGFR -probes, A431 -cells were seeded at 60’000 cells/well in a 6-well plate (Greiner Bio-One) and incubated until 80 -100% confluencey. Before treatment , cells were washed twice with PBS. Cells were incubated with the indicated compound concentration (final conc. of 1% DMSO in RPMI -FCS ) at 37 °C.
After the incubati on, cells were washed twice with ice cold PBS and lysed in ice -cold RIPA -buffer containing cOmplete TM protease inhibitor (Roche), 50 mM iodo acetamide (I1149, Sigma Aldrich) and
Following a 10 min incubation at 37 °C lysat es were transferred
TBTA, 0.5 mM TCEP, 0.05 mM fluorescein-N3) in a shaker (800 rpm, 37 °C) for 45 minutes. Afterwards, proteins were precipitated with the 4-fold volume of acetonitrile and cetrifuged (14’00 rcf, 5 min). The solvent was removed and precipitates were resuspended in 80% EtOH followed by another round of centrifugation (10’000 rcf, 5 min). The pellets were aspirated and left to dry on air for 5-10 minutes.
and bands were quantified in ImageLab 6.1.

BTK in RAMOS cells = biological target: T1, BTK in RAMOS cells (Homo sapiens, UniProt Q06187); experiment: Gel-based ABPP of BTK probes in RAMOS cells; type: cell-based; details: 250 nM, 1 h, 37 °C
T1 construct: we performed a gel-based ABPP experiment using RAMOS cells; host or cells: RAMOS
T1 sequence (Q06187 whole entry): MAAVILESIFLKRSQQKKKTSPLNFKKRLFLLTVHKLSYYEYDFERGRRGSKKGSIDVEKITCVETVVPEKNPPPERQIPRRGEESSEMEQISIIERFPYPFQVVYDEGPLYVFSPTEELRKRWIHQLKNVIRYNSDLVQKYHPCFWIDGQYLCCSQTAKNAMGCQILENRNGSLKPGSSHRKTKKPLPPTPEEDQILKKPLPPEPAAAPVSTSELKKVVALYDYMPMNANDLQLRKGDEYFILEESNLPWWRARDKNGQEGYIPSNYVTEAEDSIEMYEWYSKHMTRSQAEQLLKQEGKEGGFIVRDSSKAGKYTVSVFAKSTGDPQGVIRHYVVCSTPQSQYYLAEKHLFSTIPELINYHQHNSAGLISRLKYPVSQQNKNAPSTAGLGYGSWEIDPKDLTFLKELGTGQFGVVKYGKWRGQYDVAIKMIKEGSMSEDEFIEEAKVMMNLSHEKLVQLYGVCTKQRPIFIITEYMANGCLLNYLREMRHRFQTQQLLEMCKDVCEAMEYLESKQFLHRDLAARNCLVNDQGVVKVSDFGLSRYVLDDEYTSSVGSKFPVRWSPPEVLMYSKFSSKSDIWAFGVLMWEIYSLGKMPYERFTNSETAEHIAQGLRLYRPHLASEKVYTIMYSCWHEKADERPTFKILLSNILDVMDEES
Source text: Motivated by these promising results, we wanted to extend the scope toward a different class of kinase inhibitors. […] Inspired by these findings, we synthesized a series of VPA probes based on the pyrazolo[3,4-d]-pyrimidine scaffold (8–11, Figure a), each harboring a different aromatic linker. To compare their reactivity and selectivity for BTK, we performed a gel-based ABPP experiment using RAMOS cells. […] In contrast, for all four PA probes, only one intense band was obtained at the same height as BTK. […] Analogously to Afatinib-derived probe 4a, we wanted to investigate whether one stereoisomer might show preferential binding.
(b) Comparison of the in-cell reactivity profiles of BTK probes 8–12 in RAMOS cells (250 nM, 1 h, 37 °C) analyzed by gel-based ABPP. […]
Fluorescence was monitored over 4 h at 30 °C every 60 seconds (λex = 360 nm and λem = 492 nm).
Background‑subtracted fluorescence intensity (RFU) was plotted against time (s), and data were fitted to a single‑phase association model: […]
4.7 In-cell protein labeling and in -gel fluorescence analysis […]
Afterwards, the precipitate was redissolved in 40 µl 8 M urea (100 mM Tris, pH 8), 8 µl Laemmli buffer were added and the samples were denatured at 95 °C for 5 minutes. Proteins were seperated via SDS - PAGE (12% or 4-20% acrylamide gels) and analyzed on a Gel Doc XR+ (Bio-Rad, USA). […]

wt EGFR = biological target: T2, wt EGFR (Homo sapiens, UniProt P00533); experiment: biochemical; type: biochemical
T2 construct: purchased Sino Biological
T2 sequence (P00533 25-1210): as the sequence (P00533 25-1210) above

wild-type EGFR = wild-type EGFR (Homo sapiens, UniProt P00533); experiment: biochemical; details: in vitro kinase assay
wild-type EGFR, sequence (P00533 25-1210): as above

RAMOS cell lysate = experiment: Gel-based ABPP of alkyne probes in RAMOS cell lysate; set-up: species or system human; details: RAMOS cell lysate 1 mg/mL, 10 and 100 μM, 1 h
Source text: Greater reactivity yields a higher isoDTB ratio. Ratios ≥ 4 (dashed line) are considered liganded.
Nonetheless, since the formation of the glutathione conjugate was clearly notable, we wanted to investigate the reactivity of 1a with a more diverse set of thiols. Therefore, we examined all three electrophilic groups for their ability to label cysteines in whole-cell lysates. First, alkyne-functionalized reagents (1b–3b, for structures, see Scheme S1) were synthesized to allow for gel-based activity-based protein profiling (ABPP). […] Since all compounds share the same scaffold and differ only by their reactive functional group, we anticipate that any differences in labeling intensity should primarily stem from differences in electrophilicity. […] CAPA reporter cells were prepared by transiently transfecting HEK293T with a plasmid enabling the cytoplasmic expression of the Halotag protein, and concentration-dependent cell permeability was assessed. […]
Cells were harvested by centrifugation, washed trice with ice cold PBS (Ph 7.4) and stored at -70°C until lysis. […] Lysates were cleared by centrifugation (15’000 rcf) and the proteinconcentration was determined via BCA assay (Pierce BCA Protein Assay Kit, Thermo Fisher Scientific) according to the vendors instructions. […]

RAMOS cells = experiment: Off-target reactivity in EGFR-negative RAMOS cells (gel-based); details: up to 10 μM, 1 h, 1 μM time course
Description: probe 5 in EGFR-negative RAMOS-cells. Cells (3x10^6/ml) were treated with the indicated probe-
concentration for 1 h @ 37 °C in RPMI –FCS. After the treatment, cells were processed according to the
Data is representative of three independent experiments. a) Fluorescent gel
of RAMOS-cells treated with the indicated probe-concentration. b) Relative fluorescent intensity of
three independent experiments c) Fluorescent gel of RAMOS-cells treated 1 µM probe 5 or 7 for the
indicated time. b) Relative fluorescent intensity of three independent experiments (quantitative results
were normalized to the most intense band in each replicate)
For BTK-probes, RAMOS-cells were seeded at 3x10^6 cells/ml (RMPI w/o FCS) and incubated with the indicated compound concentration (final conc. of 1% DM SO) at 37 °C. After the incubation, cells were harvested by centrifugation, washed twice with ice cold PBS and lysed in ice -cold RIPA-buffer containing cOmpleteTM protease inhibitor (Roche), 50 mM iodo acetamide (I1149, Sigma Aldrich) and
Following a 10 min incubation at 37 °C lysates were f urther processed as described above.

A431 cells = experiment: Proteomic pulldown with EGFR probes in A431 cells (LFQ); type: cell-based, human; details: for # Labelled Proteins (total number of significantly enriched proteins) / off-targets enriched: 10 μM probe
Description: To gain a more detailed understanding of which proteins are labeled by the corresponding probe, we performed a proteomic pulldown experiment. […] . […] Additionally, we also wanted to investigate proteomic engagement under more extreme conditions, using a 10 μM probe concentration. […] Even though both probes enriched a large portion of proteins, EGFR was still among the most prominent hits for the phosphonamidate probe and only to a lesser extent for 5 (Figure S11). Overall, we observed a certain degree of complementarity between the off-targets obtained from the corresponding probes (Figures j and S12). […] Most prominently, selenoprotein SELENOT and solute carrier protein SLC25A32 were only enriched by phosphonamidate probe 7. On the other hand, several proteins like the cysteine proteases ATG4B, CTSB, and BOLA2 were exclusively enriched by DMAC probe 5.
Figure S 10: Volcano blots obtained from label free quantification of the proteins from streptavidin pulldowns performed with 1 µM probe 5 or 7 (in comparison to the DMSO treated sample). Proteins were identified and quantified and blotted as described in 4.8: Variance stabilization and Perseus-type […]
At the tested concentration, both probes solely enrich
EGFR. Data was obtained from 4 independent replicates.
Figure S 11: Volcano blots obtained from label free quantification of the proteins from streptavidin pulldowns performed with 10 µM probe 5 or 7 (in comparison to the DMSO treated sample). Proteins […]
imputation were enabled. Proteins surpassing a log 2 fold-change of 2.5 and a -log10 adjusted p-value […]
proteins can be found in Supplementary Table 1. Data was obtained from 4 independent replicates. […]
4.8 In-cell protein labeling and s ample preparation for proteomic pull-down Cells were cultured, treated and lysed as described in 4.4. Lysates (approx. 200 μg of protein each) […]
Afterwards, the samples we re processed according to a procedure published by Becker et al. 10: A total of 50 μl of mixed hydrophobic and hydrophilic carboxylate -coated magnetic beads (1:1, prewashed with PBS; Seramag™, Cytavia) was added to the click reaction mixture followed by 600 μl of absolute ethanol to precipitate the proteins. Beads were washed thrice with of 80% ethanol and proteins were eluted by two sequential washes of 0.2% SDS in PBS. The eluted proteins were directly transferred onto 30 μl of streptavidin-coated magnetic beads (prewashed with 0.2% SDS in PBS; New England Biolabs) and incubated on a shaker for 1 h at r.t. Streptavidin-beads were washed thrice with 8 M urea, PBS pH 7.4 and MilliQ water. Washed beads were resuspended in 100 mM ABC buffer, followed by […]
trypsinized overnight at 37 °C (1.5 µg/sample, Promega). The supernatant was removed, acidified to 1% TFA, centrifuged at 10‘000 rcf for 5 minutes and stored at -20 °C until measurement. Before MS/MS analysis a quality-control run was conducted on a Waters XEVO G2-XS QTof instrument to ensure […]
Samples were diluted based on the QC-runs to ensure equal loading. LC-MS/MS analysis was performed using an UltiMate 3000 RSLC nano LC system coupled on -line to an Orbitrap Fusion mass spectrometer (Thermo Fisher Scientific). For sample loading a PepMap C -18 trap-column (Thermo Fischer Scientific) of 0.075 mm ID x 50 mm length, 3 μm particle size and 100 Å pore size was used. The loading mobile phase A contained 1% acetonitrile and 0.05% TFA acid in water, and mobile phase B 0.05% TFA acid in acetonitrile. Reversed-phase separation was performed using a 50 cm analytical column (in-house packed with Poroshell 120 EC-C18, 2.7μm, Agilent Technologies) with mobile phase A contained 0.1% formic acid in water, and mobile phase B 0.1% formic acid in acetonitrile using a 93 […]
ions with charge states 2-4 were isolated with a mass selecting quadrupole (isolation window 1.6 m/z)

| Structure (SMILES) | in-cell EGFR labeling, competition with excess Afatinib (EGFR in A431 cells; 1 h 37 °C) | target selectivity in time-course labeling (EGFR in A431 cells) | off-target labeling in EGFR-negative cells (RAMOS cells) | # Labelled Proteins (total number of significantly enriched proteins) (A431 cells; A431 cells) | off-targets enriched (A431 cells; A431 cells) | also measured |
| --- | --- | --- | --- | --- | --- | --- |
| C#CCCOP(=O)(C=C)Nc1cc2c(Nc3ccc(F)c(Cl)c3)ncnc2cc1O[C@H]1CCOC1 (stereo partly shown) [4c] | selective covalent engagement of EGFR | – | – | – | – | – |
| C#CCCOP(=O)(C=C)Nc1ccccc1Cn1nc(-c2ccc(Oc3ccccc3)cc2)c2c(N)ncnc21 (stereo not shown) [compound 9] | – | – | – | – | – | in-cell reactivity profile (gel bands) (BTK in RAMOS cells): most intense labeling |
| C=CP(=O)(Nc1cc2c(Nc3ccc(F)c(Cl)c3)ncnc2cc1O[C@H]1CCOC1)OCC (stereo partly shown) [4a] | – | – | – | – | – | Ki (wt EGFR; 4a 2–50 nM): 2430 pM; k inact (wt EGFR; 4a 2–50 nM): 0.24 × 10^–3 s^–1; k inact/K I ratio (wt EGFR; direct comparison): 97 × 10^3 M^–1 s^–1; IC50 (wild-type EGFR): 680 pM and 670 pM |
| C#Cc1ccc(NC(=O)CCl)cc1 [3b] | – | – | – | – | – | fluorescent labeling signal (RAMOS cell lysate): most intense fluorescent signal |
| C#CCOc1cc2ncnc(Nc3ccc(F)c(Cl)c3)c2cc1NC(=O)/C=C/CN(C)C [compound 5, reference compound] | – | significantly higher off-target labeling | significant fluorescent labeling of off-targets | 327 | 118 | significantly enriched proteins (A431 cells; A431 cells, 1 μM probe, 2 h 37 °C, log2-fold change >2.5, adjusted p <0.01): solely enrich |
| C#CCOc1cc2ncnc(Nc3ccc(F)c(Cl)c3)c2cc1NP(=O)(C=C)OCC (stereo not shown) [compound 7] | EGFR-selective labeling | did not decrease | almost no labeling | 119 | 327 | lowest concentration with detectable labeling signal (EGFR in A431 cells; 1 h 37 °C): ≤ 5 nM; significantly enriched proteins (A431 cells): solely enrich; also recorded: EGFR is the only protein significantly enriched |

Reference: paper PMC12951430, “Modular Vinyl Phosphonamidates for Cysteine-Directed Protein Targeting” (Journal of the American Chemical Society, 2026)
